We go through 14 compounds from patent publication US20040001834A1, “Phospholipase A2 enzyme, antibodies and inhibitors thereto” (priority 2002, published 2004).

One assay has as its system rPLA2. Briefly: rPLA2 enzyme activity assay with 2-[1-14C]AA-GPC substrate in the presence of inhibitors or divalent metal ions. Conditions: for inhibition of rPLA2 activity: substrate 2-[1-14C]AA-GPC, 10 min; for effect on rPLA2 activity compared with cPLA2: comparison rPLA2 versus cPLA2. The class given is biochemical, bovine. The procedure: To verify the effect of known inhibitors on the activity of rPLA2, the various concentrations of inhibitors, i.e., DTT (dithiothtreitol), AACOCF3 (arachidonylfluoromethyl ketone) known as the cPLA2 inhibitor, mepacrine and methyl mercury, mercuric chloride known as the sPLA2 inhibitors were added to active pool from Mono Q column and reacted 2-[1-^14C]-AA-GPC as a substrate for 10 min. The comparative groups, cPLA2 and sPLA2, were subjected to in a same procedure.
To verify the effect of divalent metal ions on enzyme activity, to rPLA2 activity, various concentrations of divalent metal i.e., Zn^2+, Fe^2+, Cu^2+, Sr^2+, Ba^2+, Mn^2+ and Mg^2+ were added to active pool from Mono Q column and reacted 2-[1-^14C]-AA-GPC as a substrate for further 10 min. The comparative groups, cPLA2 and sPLA2, were subjected to in a same procedure.
To measure the functions of rPLA2 using inventive antibody, the supernatant obtained from above procedure was adopted to analyze the activity. PLA2 activity was measured in an assay system (100 μl) of 75 mM Tris-HCl (pH 7.5) containing […] of 2-[1-^14C]AA-GPC (110,000 cpm/4.5 nmol) mixed with 2-[1-^14C]AA-GPC, 4% glycerol, 5 mM CaCl2 and 0.2 % BSA.
Prepared rPLA2 and cPLA2 and each inhibitor dissolved in 5 μl of DMSO solution was added and reacted for 10 min at 37° C. maintaining the temperature. 2-[1-^14C]AA-PC as a substrate was added and reacted for 10 min at 37° C. maintaining the temperature.
To verify the mechanism of inhibition, Dixon plot was constructed (FIG. 31).

In a further assay the test system is bovine RBCs. The assay can be described thus: [3H]AA release from labeled bovine RBCs. The class given is cell-based. Conditions: for inhibition of AA release by A23187 in bovine RBC: 50 μM of EA4, 20 min, then 2 μM A23187, 37 °C. The procedure: (§1) Human venous blood was collected in heparin (40 unit/ml) from some healthy volunteers among the Korean graduate students in our laboratory and bovine blood freshly collected in heparin (40 unit/ml) in a local slaughterhouse. After blood was centrifuged at 500×g for 20 min, the resulting supernatants of the platelet-rich plasma, the buffy coat and the leading edge of the packed RBCs were completely removed by aspiration. Sedimented RBCs, leukocytes, and platelets were re-suspended in a sterile buffer (50 mM Tris-HCl, pH 7.5, 1 mM EDTA, 0.12 M NaCl). This centrifugation and aspiration cycle was repeated six times taking care of removing leukocytes and platelets and the top 10% of the RBCs suspensions. Washed cell suspensions (10 ml) were subsequently depleted of residual leukocytes and platelets by filtration through a Sepharose 4B-200 column (20×2.5 cm) pre-equilibrated with sterile saline (0.9% w/v NaCl) as described above.
(§2) The Sepharose 4B-200 column-purified RBCs suspensions (approximately 1×10^9 cells/ml) were twice washed with serum-free MEM containing 1 mg/ml of fatty acid-free bovine serum albumin (BSA) and labeled for 1 hr with 1.5 mCi [^3H]AA (1 mCi/0.1 ml ethanol)/ml of the same medium. Murine L929 cells (1-2×10^6 cells/ml) were labeled for 6 hrs with 1.5 mCi [^3H]AA (1 mCi/0.1 ml ethanol)/ml of the same medium. Thereafter, cells were washed three times to remove all unincorporated [^3H]AA. […]
(§3) For analysis of [^3H] AA release, at each time of 0, 10, 30, 60 and 90 min after reaction between the cell and A23187, the RBCs were centrifuged as above, and each aliquot (200 μl) of the supernatants for the RBCs and each aliquot (100 μl ) of the conditioned media for the L929 cells was transferred to 2.5 ml of the scintillation counting solution and counted for radioactivity with a Packard Tri-carb liquid β-scintillation counter (Packard Instrument Co., Meriden, Conn.). […]
(§4) Cells were collected and centrifuged at the interval of 10 min. And the radioactivity was measured by scintillation counter.

A further assay has as its system human RBCs. The assay can be described thus: [3H]AA release from labeled human RBCs. The class given is cell-based. To be noted: for inhibition of AA release by A23187 in human RBC: 50 μM of EA4, 20 min, then 2 μM A23187, 37 °C. The protocol:
as §1, §2, §3, §4

The subject of a further assay is cPLA2. Briefly: cPLA2 enzyme activity assay with inhibitors (comparative group). The class given is biochemical, porcine. Conditions: substrate 2-[1-14C]AA-PC, 10 min, 37° C. An excerpt: Stearoyl-2-[1-^14C]arachidonyl-sn-glycerol-3-phosphocholine (2-[1-^14C]AA-GPC) (55.3 mCi/mmol), 1-palmitoyl-2-[1-^14C]palmitoyl-sn-glycerol-3-phosphocholine (2-[1-^14C]PA-GPC) (55.6 mCi/mmol), 1-palmitoyl-2-[1-^14C]linoleoyl-sn-glycerol-3-phosphocholine (2-[1-^14C]LA-GPC) (55.9 mCi/mmol), 1-acyl-2-[1-^14C]arachidonyl-sn-glycerol-3-phosphoethanolamine (2-[1-^14C]AA-GPE) (55.1 mCi/mmol) and [^3H]arachidonic acid (AA) (204 Ci/mmol) ([^3H]AA) were purchased from the radio-chemical center, Amersham Life Science Ltd. (Buckinghamshire, UK). 1-Stearoyl-2-arachidonyl-sn-glycerol-3-phosphocholine (2-AA-GPC), dithiothreitol (DTT), A23187, 3,3′-diaminobenzidine (DAB), methylcellulose, erythropoietin and Sepharose 4B-200 gel filtration column were purchased from Sigma Co. (St. Louis, Mo.). Anti-human secretory 14 kDa sPLA2 antibody was purchased from Upstate Biotechnology, Inc. (Lake Placid, N.Y.). Goat anti-rabbit- and anti-mouse-alkaline phosphatase conjugates were purchased from Santa Cruz Biotechnology Inc., Santa Cruz, Calif. Group IV cytosolic PLA2 (cPLA2) was purified from porcine spleen and anti-cPLA2 polyclonal antibody was generated as described above(Kim, D. K., and Bonventure, J. V., Biochem. J., 294, 261-270, 1993). Group II secretory PLA2 (sPLA2) was partially purified from bovine platelets as described above (Hara, S et al., J. biochem., 105, 395-399, 1989). […]

The next assay concerns L929 cells. The assay can be described thus: [3H]AA release from labeled L929 cells. The class given is cell-based, murine. To be noted: 50 μM of EA4, 20 min, then 2 μM A23187, 37 °C. The procedure:
The Sepharose 4B-200 column-purified RBCs suspensions (approximately 1×10^9 cells/ml) were twice washed with serum-free MEM containing 1 mg/ml of fatty acid-free bovine serum albumin (BSA) and labeled for 1 hr with 1.5 mCi [^3H]AA (1 mCi/0.1 ml ethanol)/ml of the same medium. Murine L929 cells (1-2×10^6 cells/ml) were labeled for 6 hrs with 1.5 mCi [^3H]AA (1 mCi/0.1 ml ethanol)/ml of the same medium. Thereafter, cells were washed three times to remove all unincorporated [^3H]AA. The labeled cells were incubated in MEM containing 1 mg/ml BSA as a trap for the released [^3H]AA and then stimulated with vehicle (0.1 μl ethanol/ml medium) or 2 μM of calcium ionophore A23187 at 37° C. And a control group is treated with vehicle only without A23187 compound.
as §3, §4

The mark [1] stands for this setting: 2 μM A23187, 37° C., 0-90 min, time-dependent.

“Also recorded” adds a separate entry of the source.

Turning to `CCN(CC)CCCC(C)Nc1c2ccc(Cl)cc2nc2ccc(OC)cc12` (stereo not drawn) [mepacrine, reference compound], the “inhibition of rPLA2 activity” value in the assay on rPLA2 was “not inhibited”.

Take `[Cl][Hg][Cl]` [mercuric chloride, reference compound]: in the assay on rPLA2, the “effect on rPLA2 activity compared with cPLA2” value is given as “different profile from cPLA2” and the “inhibition of rPLA2 activity” value is “not inhibited”.

Consider `CNc1ccc2oc(C[C@H]3O[C@@]4(CC[C@H]3C)O[C@H]([C@H](C)C(=O)c3ccc[nH]3)[C@H](C)C[C@H]4C)nc2c1C(=O)O` [A23187, reference compound], for which the “release of [3H]AA from bovine RBCs” value in the assay with bovine RBCs (setting [1]) is “released”. Also, the “release of [3H]AA from human RBCs” value in the assay on human RBCs (setting [1]) is “released”.

For the compound `[Mn+2]` [Mn^2+], in the assay on rPLA2, the “activation of rPLA2 activity by divalent metal cation” value (“activation of rPLA2 activity” for short) is reported as “activated”.

As to `O[C@H](CS)[C@H](O)CS` (racemic) [DTT, dithiothreitol, reference compound], the “inhibition of rPLA2 activity” value with rPLA2 was “not inhibited”.

Regarding `[Fe+2]` [Fe^2+], the “activation of rPLA2 activity” value with rPLA2 is recorded as “activated”.

Regarding `[Mg+2]` [Mg^2+], in the assay on rPLA2, the “activation of rPLA2 activity” value is reported as “activated”.

As to `CC(C)(C)c1cc(C2=C(Cl)C(=O)c3ccccc3C2=O)cc(C(C)(C)C)c1O` [TP1, 2-(3,5-Di-tert-butyl-4-hydroxyphenyl)-3-chloro-1,4-naphthalene dione, reference compound], in the assay with cPLA2, the “inhibition of cPLA2 activity” value was “inhibited”. Besides, the “inhibition of AA release in L929 cells” value in the assay on L929 cells was “inhibited”. Also, in the assay on rPLA2, the “inhibition of rPLA2 activity” value is given as “inhibited that of cPLA2 only; also recorded: not inhibited”. Moreover, the “inhibition of AA release by A23187 in bovine RBC” value in the assay with bovine RBCs is “not inhibited”. In the assay with human RBCs, the “inhibition of AA release by A23187 in human RBC” value is recorded as “not inhibited”.

Take `[Ba+2]` [Ba^2+]: the “activation of rPLA2 activity” value with rPLA2 is “activated”.

Consider `[Zn+2]` [Zn^2+], for which the “activation of rPLA2 activity” value in the assay on rPLA2 is “activated”.

Consider `[CH3][Hg][Cl]` [methyl mercury, reference compound], for which, in the assay on rPLA2, the “effect on rPLA2 activity compared with cPLA2” value is on record as “less effective activity than cPLA2” and the “inhibition of rPLA2 activity” value was “not inhibited”.

In the case of `[Sr+2]` [Sr^2+], the “activation of rPLA2 activity” value with rPLA2 was “activated”.

As to `[Cu+2]` [Cu^2+], the “activation of rPLA2 activity” value with rPLA2 is “activated”.

In general, Ki refers to a dissociation constant, usually derived from enzyme kinetics or from competition with a known ligand. Consider `CCN(CC)c1ccc(C2=C(Cl)C(=O)c3ncccc3C2=O)cc1` [EA4, 7-chloro-6-[4-(diethylamine)phenyl]-5,8-quinolinedione], for which the “inhibition of cPLA2 activity” value in the assay with cPLA2 is given as “inhibited; also recorded: inhibits the activity of cPLA2”. In addition, in the assay on L929 cells, the “inhibition of AA release in L929 cells” value is given as “inhibited”. The “inhibitory pattern on rPLA2” value in the assay on rPLA2 (Dixon plot) is reported as “competitive; also recorded: competitively”. The inhibition constant (Ki) on rPLA2 (Dixon plot, competitive inhibition, read-out: inhibition constant (Ki) for rPLA2) was found to be 130 µM. The “inhibition of rPLA2 activity” value with rPLA2 is on record as “inhibited”. Besides, in the assay with bovine RBCs, the “inhibition of AA release by A23187 in bovine RBC” value was “significantly inhibited; also recorded: inhibits the release”. The “inhibition of AA release by A23187 in human RBC” value in the assay on human RBCs was “significantly inhibited”.
